Measurements from US11660311B2, “Cyclic dinucleotides as anticancer agents” (priority 2017, dated 2023).
Read-outs that look alike come from different tables or passages of the source.

What was measured:
[1] = molecular target: T1, STING WT: His-TVMV-S-hSTING(155-341)-H232R (Homo sapiens, UniProt Q86WV6, H232R); assay: STING HTRF Binding Assay, STING WT; conditions: 20 nM His-tagged STING cytoplasmic domain, 200 nM fluorescein-labeled cGAMP analog probe, one hour; read-out: HTRF Binding Assays IC50 (μM) STING WT
T1 construct: STING WT: His-TVMV-S-hSTING(155-341)-H232R
T1 sequence (Q86WV6 with tags, fused parts or gaps H232R): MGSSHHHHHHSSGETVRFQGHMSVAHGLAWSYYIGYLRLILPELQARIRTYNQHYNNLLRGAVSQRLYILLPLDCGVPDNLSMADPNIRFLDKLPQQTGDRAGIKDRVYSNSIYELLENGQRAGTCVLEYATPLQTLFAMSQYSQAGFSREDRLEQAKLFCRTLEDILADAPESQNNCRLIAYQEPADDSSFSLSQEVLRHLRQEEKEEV
Experimental: (§1) A time resolved FRET-based competition binding assay was used to assess test article binding to STING WT and STING AQ. His-tagged STING cytoplasmic domain (WT or AQ) at a concentration of 20 nM was incubated with 2.5 nM Tb-labeled anti-His antibody, test compound, and fluorescein-labeled cGAMP analog probe (BioLog cat. no. C195) at a concentration of 200 nM (STING WT) or 40 nM (STING AQ) in PBS containing 0.005% Tween-20 and 0.1% BSA for one hour. Fluorescence at 495 nm and 520 nm was measured using an EnVision microplate reader to quantify FRET between Tb-labeled anti-His antibody and fluorescein-labeled probe. Background was defined as the signal obtained in the absence of STING protein, and background subtracted FRET ratios were normalized to the maximum signal obtained in the absence of test compound. These values were converted to a percent inhibition. Percent inhibition was determined for test compounds at 11 concentrations. The IC50, defined as the concentration of competing test compound needed to reduce specific binding of the probe by 50%, was calculated using the 4 parameter logistic equation to fit the data

[2] = tested on: IRF pathway in THP1-Dual STING reporter cells; assay: STING THP1 Reporter Assay, IRF pathway (secreted Lucia luciferase); format: cell-based, human; conditions: 100% = 100 μM cGAMP
Text: (§2) THP1-Dual™ cells were derived from the human THP-1 monocyte cell line by stable integration of two inducible reporter constructs. To this end, THP1-Dual™ cells allow the simultaneous study of the NF-κB pathway, by monitoring the activity of SEAP, and the IRF pathway by assessing the activity of a secreted luciferase (Lucia). Both reporter proteins are readily measurable in the cell culture supernatant when using QUANTI-Blue™, a SEAP detection reagent, and QUANTI-Luc™, a luciferase detection reagent.
(§3) THP1-Dual™ cells induce the activation of NF-κB in response to STING agonists. They also trigger the IRF pathway upon stimulation with STING agonists, such as cGAMP. Here, the THP-1-Dual cells were used to assess STING binders for function on the cellular level.
(§4) Serial dilutions of compounds in DMSO were added to low volume 384 well plates at 100 nl/well using an ECHO acoustic dispenser (Labcyte, model 550) to achieve final starting concentration of 100 μM in cell suspension. […] One column of the plate was reserved for treatment with cGAMP at 100 μM for 100% activation calculation and one column for no treatment (DMSO only) for baseline activation. Plates were then incubated in 37° C. incubator at 5% CO2 for 20 hours.
(§5) In the SEAP assay, 5 μl of 2× QuantiBlue (Invivogen, cat #Rep-qb2) is added to 384 well black plates seeded with THP1 cells and incubated at 37° C. for 2 hours. Plates were read on the Envision (Perkin Elmer) at 620 nm wavelength (OD620). In the luciferase assay, 5 μl of Quantiluc (Invivogen, Rep-qlc2) is added to white 384 well plates seeded with THP1 cells and read at 5 minutes on the Envision (Perkin Elmer) using a luminescence protocol (RLU). For both cell lines, 100% activation was determined by value (RLU) of THP-1 Dual STING cells stimulated with 100 μM cGAMP (Invivogen, cat #TLRL-NACGA23-5).

[3] = tested on: NF-κB pathway in THP1-Dual STING reporter cells; assay: STING THP1 Reporter Assay, NF-κB pathway (SEAP); format: cell-based, human; conditions: 100% = 100 μM cGAMP
Text: as §2, §3, §4, §5

[4] = molecular target: T2, STING AQ: His-TVMV-S-hSTING(155-341)-G230A-R293Q (Homo sapiens, UniProt Q86WV6, G230A/H232R/R293Q); assay: STING HTRF Binding Assay, STING AQ; conditions: 20 nM His-tagged STING cytoplasmic domain, 40 nM fluorescein-labeled cGAMP analog probe, one hour; read-out: HTRF Binding Assays IC50 (μM) STING AQ
T2 construct: STING AQ: His-TVMV-S-hSTING(155-341)-G230A-R293Q
T2 sequence (Q86WV6 with tags, fused parts or gaps G230A/H232R/R293Q): as the sequence (Q86WV6 with tags, fused parts or gaps H232R) above, with G99A, R162Q counted along it
Experimental: as §1

[5] = Homo sapiens, THP1-Dual, 20 h, THP1-Dual cells, 10% human plasma, 20 hours, luciferase, read-out: THP1 Reporter Assays EC50 (μM) IRF3
[6] = Homo sapiens, THP1-Dual, 20 h, read-out: THP1 Reporter Assays EC50 (μM) NFkB, THP1-Dual cells, 10% human plasma, 20 hours, SEAP
[7] = read-out: THP1 Reporter Assays EC50 (μM) IRF3, THP1-Dual cells, 10% human plasma, 20 hours, luciferase
[8] = read-out: THP1 Reporter Assays EC50 (μM) NFkB, THP1-Dual cells, 10% human plasma, 20 hours, SEAP
[9] = THP1-Dual cells, 10% human plasma, 20 hours, luciferase, read-out: THP1 Reporter Assays EC50 (μM) IRF3
[10] = THP1-Dual cells, 10% human plasma, 20 hours, SEAP, read-out: THP1 Reporter Assays EC50 (μM) NFkB
[11] = Homo sapiens, THP1-Dual, 20 h, THP1-Dual cells, 10% human plasma, 20 hours, SEAP, read-out: THP1 Reporter Assays EC50 (μM) NFkB

Compound | IC50 [1] | EC50 [2, 5] | EC50 [3, 6] | IC50 [4] | EC50 [2, 7] | EC50 [3, 8] | EC50 [2, 9] | EC50 [3, 10] | EC50 [3, 11] | EC50 ([2]; Homo sapiens, THP1-Dual, 20 h, read-out: THP1 Reporter Assays EC50 (μM) IRF3, THP1-Dual cells, 10% human plasma, 20 hours, luciferase)
NC(=O)c1cccc2c1nnn2[C@@H]1O[C@@H]2COP(=O)(O)O[C@H]3[C@@H](F)[C@H](n4cnc5c(N)ncnc54)O[C@@H]3COP(=O)(O)O[C@H]2[C@H]1F [Example 7, 1-[(1R,6R,8R,9R,10R,15R,17R,18R)-17-(6-amino-9H-purin-9-yl)-9,18-difluoro-3,12-dihydroxy-3,12-dioxo-2,4,7,11,13,16-hexaoxa-3λ^5,12λ^5-diphosphatricyclo[13.3.0.0^6,10]octadecan-8-yl]-1H-1,2,3-benzotriazole-4-carboxamide] | 11.9 µM | > 100 µM | > 100 µM | 0.31 µM | – | – | – | – | – | –
Nc1ncnc2c1ncn2[C@@H]1O[C@@H]2COP(=O)(S)O[C@H]3[C@@H](F)[C@H](n4cnc5c4ncn4ccnc54)O[C@@H]3COP(=O)(S)O[C@H]2[C@H]1F (single isomer, unassigned) [Example 21-3] | 0.02 µM | – | – | 0.01 µM | 0.14 µM | 0.53 µM | – | – | – | –
Nc1ncnc2c1ncn2[C@@H]1O[C@@H]2COP(=O)(S)O[C@H]3[C@@H](F)[C@H](n4cnc5c4ncn4ccnc54)O[C@@H]3COP(=O)(S)O[C@H]2[C@H]1F (single isomer, unassigned) [Example 21-2] | 0.02 µM | – | – | 0.01 µM | 0.13 µM | 0.56 µM | – | – | – | –
Nc1ncnc2c1ncn2[C@@H]1O[C@@H]2COP(=O)(S)O[C@H]3[C@@H](O)[C@H](n4cnc5c4ncn4ncnc54)O[C@@H]3COP(=O)(O)O[C@H]2[C@H]1F (single isomer, unassigned) [Example 10-1] | 2.5 µM | – | – | 0.04 µM | > 100 µM | > 100 µM | – | – | – | –
NC(=O)c1cccc2c1nnn2[C@@H]1O[C@@H]2COP(=O)(S)O[C@H]3[C@@H](F)[C@H](n4cnc5c(N)ncnc54)O[C@@H]3COP(=O)(S)O[C@H]2[C@H]1F (single isomer, unassigned) [Example 4-4] | 0.78 µM | – | – | 0.02 µM | – | – | 81.1 µM | 92.4 µM | – | –
Nc1nc2c(ncn2[C@@H]2O[C@@H]3COP(=O)(O)O[C@H]4[C@@H](O)[C@H](n5cnc6c5ncn5ccnc65)O[C@@H]4COP(=O)(S)O[C@H]3[C@H]2O)c(=O)[nH]1 (stereo partly shown) [Example 16] | 96 µM | > 100 µM | – | 5.65 µM | – | – | – | – | > 100 µM | –
Nc1ncnc2c1ncn2[C@@H]1O[C@@H]2COP(=O)(S)O[C@H]3[C@@H](O)[C@H](n4cnc5c(=O)[nH]c6nccn6c54)O[C@@H]3COP(=O)(S)O[C@H]2[C@H]1F (mixture of isomers) [Example 5, (1S,6R,8R,9R,10R,15R,17R,18R)-8-(6-amino-9H-purin-9-yl)-9-fluoro-18-hydroxy-17-{4-oxo-1H,4H,5H-imidazo[2,1-b]purin-1-yl}-3,12-disulfanyl-2,4,7,11,13,16-hexaoxa-3λ^5,12λ^5-diphosphatricyclo[13.3.0.0^6,10]octadecane-3,12-dione] | 0.004 µM | – | 1.35 µM | 0.001 µM | – | – | – | – | – | 0.49 µM
Nc1ncnc2c1ncn2[C@@H]1O[C@@H]2COP(=O)(S)O[C@H]3[C@@H](F)[C@H](n4cnc5c4ncn4ccnc54)O[C@@H]3COP(=O)(S)O[C@H]2[C@H]1F (single isomer, unassigned) [Example 21-1] | 0.32 µM | – | – | 0.01 µM | 28.2 µM | 34.6 µM | – | – | – | –
NC(=O)c1cc([C@@H]2O[C@@H]3COP(=O)(S)O[C@H]4[C@@H](F)[C@H](n5cnc6c(N)ncnc65)O[C@@H]4COP(=O)(S)O[C@H]3[C@H]2O)[nH]n1 (single isomer, unassigned) [Example 6-3] | > 100 µM | – | – | 16.2 µM | – | – | > 100 µM | > 100 µM | – | –
O=P1(O)OC[C@H]2O[C@@H](n3cnc4c3ncn3ccnc43)[C@H](O)[C@@H]2OP(=O)(O)OC[C@H]2O[C@@H](n3cnc4c3ncn3ccnc43)[C@H](O)[C@@H]2O1 [Example 19] | 28.6 µM | > 100 µM | – | 0.65 µM | – | – | – | – | > 100 µM | –
NC(=O)c1cc([C@@H]2O[C@@H]3COP(=O)(S)O[C@H]4[C@@H](F)[C@H](n5cnc6c(N)ncnc65)O[C@@H]4COP(=O)(S)O[C@H]3[C@H]2O)[nH]n1 (single isomer, unassigned) [Example 6-2] | 88.6 µM | – | – | 5.75 µM | – | – | > 100 µM | > 100 µM | – | –
Nc1ncnc2c1ncn2[C@@H]1O[C@@H]2COP(=O)(S)O[C@H]3[C@@H](O)[C@H](n4nnc5c([N+](=O)[O-])cccc54)O[C@@H]3COP(=O)(O)O[C@H]2[C@H]1F (single isomer, unassigned) [Example 13-2] | 5.49 µM | – | – | 0.45 µM | > 100 µM | > 100 µM | – | – | – | –
Nc1ncnc2c1ncn2[C@@H]1O[C@@H]2COP(=O)(S)O[C@H]3[C@@H](F)[C@H](n4cnc5c4ncn4ccnc54)O[C@@H]3COP(=O)(S)O[C@H]2[C@H]1F (single isomer, unassigned) [Example 21-4] | 0.01 µM | – | – | 0.01 µM | 0.28 µM | 0.67 µM | – | – | – | –
Nc1ncnc2c1ncn2[C@@H]1O[C@@H]2COP(=O)(S)O[C@H]3[C@@H](F)[C@H](n4cnc5c4ncn4ncnc54)O[C@@H]3COP(=O)(S)O[C@H]2[C@H]1F (single isomer, unassigned) [Example 12-3] | 0.02 µM | – | – | 0.003 µM | 0.27 µM | – | – | 2.65 µM | – | –
Nc1ncnc2c1ncn2[C@@H]1O[C@@H]2COP(=O)(O)O[C@H]3[C@@H](F)[C@H](n4cnc5c4ncn4ccnc54)O[C@@H]3COP(=O)(O)O[C@H]2[C@H]1F [Example 3] | 0.04 µM | 5.76 µM | – | 0.02 µM | – | – | – | – | 24.4 µM | –
Nc1nc2c(ncn2[C@@H]2O[C@@H]3COP(=O)(O)O[C@H]4[C@@H](O)[C@H](n5cnc6c(N)ncnc65)O[C@@H]4COP(=O)(S)O[C@H]3[C@H]2O)c(=O)[nH]1 (stereo partly drawn) [Example 15, (1S,8R,9R,10S,15R,17R,18R)-8-(2-amino-6-oxo-6,9-dihydro-1H-purin-9-yl)-17-(6-amino-9H-purin-9-yl)-3,9,18-trihydroxy-12-sulfanyl-2,4,7,11,13,16-hexaoxa-3λ^5,12λ^5-diphosphatricyclo[13.3.0.0^6,10]octadecane-3,12-dione] | 9.55 µM | > 100 µM | – | 0.83 µM | – | – | – | – | > 100 µM | –
